Measured values: patent US20230138851A1, “NOVEL ALKYNE DERIVATIVES” (CARNA BIOSCIENCES, INC., priority 2020, published 2023)
pIC50: −log10 of the molar value.

Columns and labels:
Assay type in all cases: biochemical
DYRK3 = molecular target: T1, DYRK3 (Homo sapiens, UniProt O43781); test: Inhibition test on activity of DYRK family, mobility shift assay (MSA), DYRK3; settings: ATP 20 μM, FITC-labeled DYRKtide peptide substrate, room temperature 1 hour; for pIC50: read-out: Inhibitory Activity 3 (IC50 against DYRK3)
T1 construct: purchased Carna Biosciences, Inc. 04-133
T1 sequence (O43781 1-588): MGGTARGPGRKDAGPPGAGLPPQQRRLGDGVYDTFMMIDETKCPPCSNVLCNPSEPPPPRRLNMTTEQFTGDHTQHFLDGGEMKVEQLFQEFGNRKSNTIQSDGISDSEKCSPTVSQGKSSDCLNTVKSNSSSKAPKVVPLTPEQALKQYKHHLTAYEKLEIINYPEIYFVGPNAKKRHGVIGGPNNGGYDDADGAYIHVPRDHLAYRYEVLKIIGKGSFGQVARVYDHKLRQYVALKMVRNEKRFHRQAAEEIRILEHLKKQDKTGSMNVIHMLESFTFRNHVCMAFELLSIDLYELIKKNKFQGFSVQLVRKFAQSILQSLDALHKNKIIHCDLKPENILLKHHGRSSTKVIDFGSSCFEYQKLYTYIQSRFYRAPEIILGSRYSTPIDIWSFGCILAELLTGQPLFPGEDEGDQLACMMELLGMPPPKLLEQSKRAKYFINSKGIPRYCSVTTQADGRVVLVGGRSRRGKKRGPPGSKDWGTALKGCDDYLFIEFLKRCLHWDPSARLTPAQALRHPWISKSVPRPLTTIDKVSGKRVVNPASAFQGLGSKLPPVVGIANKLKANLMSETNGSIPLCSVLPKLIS
Outline: (§1)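 FITC-DYRKtide phosphorylation in 20 mM HEPES pH 7.5 with MgCl2; ATP in the substrate mix was 100 μM (DYRK1A), 200 μM (DYRK1B), 40 μM (DYRK2) or 20 μM (DYRK3). Reactions ran 1 h at room temperature; inhibition from P/(P+S) versus blank and DMSO control, IC50 by regression on log concentration.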

DYRK1B = molecular target: T2, DYRK1B (Homo sapiens, UniProt Q9Y463); test: Inhibition test on activity of DYRK family, mobility shift assay (MSA), DYRK1B; parameters: Inhibitory Activity 1b (IC50 against DYRK1B): scale not given here; settings: ATP 200 μM, FITC-labeled DYRKtide peptide substrate, room temperature 1 hour
T2 construct: purchased Carna Biosciences, Inc. 04-131
T2 sequence (Q9Y463 whole entry): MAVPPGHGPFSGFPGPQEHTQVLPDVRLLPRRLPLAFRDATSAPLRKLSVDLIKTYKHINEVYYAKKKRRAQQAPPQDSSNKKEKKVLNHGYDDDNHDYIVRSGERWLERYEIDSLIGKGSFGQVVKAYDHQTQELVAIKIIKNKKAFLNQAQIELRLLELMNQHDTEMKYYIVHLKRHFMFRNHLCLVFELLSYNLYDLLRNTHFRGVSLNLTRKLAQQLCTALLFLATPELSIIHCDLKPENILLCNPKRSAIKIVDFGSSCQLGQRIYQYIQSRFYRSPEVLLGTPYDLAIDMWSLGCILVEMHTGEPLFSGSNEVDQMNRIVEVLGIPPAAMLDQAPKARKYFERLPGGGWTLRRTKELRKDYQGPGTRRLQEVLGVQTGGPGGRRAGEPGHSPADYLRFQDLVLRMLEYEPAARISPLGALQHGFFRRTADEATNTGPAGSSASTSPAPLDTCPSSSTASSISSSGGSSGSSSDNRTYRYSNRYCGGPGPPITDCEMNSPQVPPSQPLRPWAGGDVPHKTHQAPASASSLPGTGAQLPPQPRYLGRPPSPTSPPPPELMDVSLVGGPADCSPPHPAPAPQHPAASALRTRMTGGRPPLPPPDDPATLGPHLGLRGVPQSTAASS
Description: [Inhibition Test on Activity of DYRK Family (DYRK1A, DYRK1B, DYRK2, and […])]
(Method for Measuring Kinase Activity)
The kinase activity was measured by mobility shift assay (MSA) method using QuickScout Screening Assist™ MSA (commercially available kit manufactured by Carna Biosciences, Inc.). The substrate of the kinase reaction used was an FITC-labeled DYRKtide peptide included in the kit. An assay buffer [20 mM HEPES, 0.01% Triton X-100™, 2 mM dithiothreitol, pH 7.5] was used to create a substrate mixture solution with a substrate (4 μM), MgCl2 (20 mM), and ATP (DYRK1A: 100 μM; DYRK1B: 200 μM; DYRK2: 40 μM; and DYRK3: 20 μM). In addition, kinases (DYRK1A: manufactured by Carna Biosciences, Inc., Cat. No. 04-130; DYRK1B: manufactured by Carna Biosciences, Inc., Cat. No. 04-131; DYRK2; manufactured by Carna Biosciences, Inc., Cat. No. 04-132; and DYRK3; manufactured by Carna Biosciences, Inc., Cat. No. 04-133) were diluted with the assay buffer to prepare enzyme solutions (DYRK1A: 0.2 ng/μL; DYRK1B: 0.08 ng/μL; DYRK2: 0.04 ng/μL; and DYRK3: 0.25 ng/μL). The 10 mM solution of the test compound in DMSO was further diluted with DMSO to 10 levels of the concentration (0.00003 mM, 0.0001 mM, 0.0003 mM, 0.001 mM, 0.003 mM, 0.01 mM, 0.03 mM, 0.1 mM, 0.3 mM, and 1 mM), each of which was subjected to 25-fold dilution with the assay buffer to obtain a drug solution (4% DMSO solution). 5 μL of the drug solution or a control solution (4% DMSO-assay buffer), 5 μL of the substrate mixture solution, and 10 μL of the enzyme solution were mixed in the wells of a polypropylene 384-well plate and allowed to react at room temperature for 1 hour, and then the reaction was quenched by adding 60 μL of the termination buffer included in the kit. Subsequently, the quantities of the substrates (S) and the phosphorylated substrate (P) in the reaction solution were measured using LabChip EZ Reader II system (manufactured by Caliper Life Sciences) according to the protocol of the assay kit.
(Method for Evaluating Inhibitory Activity)
The heights of the peaks of the “substrate” and the “phosphorylated substrate” were expressed as S and P, respectively, and a blank containing the assay buffer instead of the enzyme solution was also measured.
The inhibition rate (%) of the test compound was calculated according to the following equation:
Inhibition rate (%)=(1−(C−A)/(B−A))×100
wherein, A, B, and C represent P/(P+S) of the blank well, P/(P+S) of the control solution well, and P/(P+S) of the compound-containing well, respectively.
The IC50 value was calculated via a regression analysis of the inhibition rate and the test compound concentration (logarithmic value).
The inhibiting activities of representative compounds of the present invention are shown against DYRK1A, DYRK1B, DYRK2, and DYRK3 in Tables 7 and 8. The kinase activity inhibitory effect was indicated with the mark *** at an IC50 value of less than 0.01 μM; the mark ** at 0.01 μM or more and less than 0.1 μM; the mark * at 0.1 μM or more and less than 1 μM; and the mark — at 1 μM or more (N.D. indicates not measured).

DYRK2 = molecular target: T3, DYRK2 (Homo sapiens, UniProt Q92630); test: Inhibition test on activity of DYRK family, mobility shift assay (MSA), DYRK2; settings: ATP 40 μM, FITC-labeled DYRKtide peptide substrate, room temperature 1 hour; for pIC50: read-out: Inhibitory Activity 2 (IC50 against DYRK2)
T3 construct: purchased Carna Biosciences, Inc. 04-132
T3 sequence (Q92630 1-601): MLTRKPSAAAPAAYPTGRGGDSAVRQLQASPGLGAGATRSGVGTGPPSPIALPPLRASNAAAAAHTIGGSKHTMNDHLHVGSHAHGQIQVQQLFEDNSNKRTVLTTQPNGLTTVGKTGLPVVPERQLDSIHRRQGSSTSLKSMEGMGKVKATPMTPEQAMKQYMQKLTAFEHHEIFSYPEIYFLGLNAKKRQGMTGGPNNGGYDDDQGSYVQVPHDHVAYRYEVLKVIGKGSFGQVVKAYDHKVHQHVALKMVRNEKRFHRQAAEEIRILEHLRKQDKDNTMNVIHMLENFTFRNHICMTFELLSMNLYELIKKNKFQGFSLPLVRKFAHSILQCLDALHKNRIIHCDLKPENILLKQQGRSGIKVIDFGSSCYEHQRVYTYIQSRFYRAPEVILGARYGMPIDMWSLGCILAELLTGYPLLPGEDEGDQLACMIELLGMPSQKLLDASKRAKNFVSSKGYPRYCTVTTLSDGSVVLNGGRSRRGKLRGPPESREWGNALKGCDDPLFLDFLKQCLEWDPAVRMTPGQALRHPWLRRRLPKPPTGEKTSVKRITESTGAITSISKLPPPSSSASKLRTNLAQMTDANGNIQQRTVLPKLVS
Outline: as §1

DYRK1A = molecular target: T4, DYRK1A (Homo sapiens, UniProt Q13627); test: Inhibition test on activity of DYRK family, mobility shift assay (MSA), DYRK1A; settings: ATP 100 μM, FITC-labeled DYRKtide peptide substrate, room temperature 1 hour
T4 construct: purchased Carna Biosciences, Inc. 04-130
Outline: as §1

| Compound | Inhibitory Activity 3 (IC50 against DYRK3) (DYRK3) | Inhibitory Activity 1b (IC50 against DYRK1B) (DYRK1B) | pIC50 (DYRK2) | Inhibitory Activity 1a (IC50 against DYRK1A) (DYRK1A) | pIC50 (DYRK3) | Inhibitory Activity 2 (IC50 against DYRK2) (DYRK2) |
| --- | --- | --- | --- | --- | --- | --- |
| CC#CC1CNC(=O)N1c1nc2c(ccc3nnn(C)c32)s1 (racemic) [Example 28, (RS)-1-(1-methyl-1H-thiazolo[4′,5′:3,4]benz[1,2-d][1,2,3]triazol-7-yl)-5-(prop-1-yn-1-yl)imidazolidin-2-one] |  | * * * | ≤ 6.00 | * * * | 6.00 to 7.00 |  |
| CC#CC1CNC(=O)N1c1nc2c(ccc3ncn(CCO)c32)s1 (racemic) [Example 31, (RS)-1-[8-(2-hydroxyethyl)-8H-imidazo[4′,5′:5,6]benz[1,2-d]thiazol-2-yl]-5-(prop-1-yn-1-yl)imidazolidin-2-one] |  | * * * | 6.00 to 7.00 | * * * | 6.00 to 7.00 |  |
| CC#CC1CNC(=O)N1c1nc2c(ccc3ncn(C4CCOCC4)c32)s1 (racemic) [Example 32, (RS)-5-(prop-1-yn-1-yl)-1-[8-(tetrahydro-2H-pyran-4-yl)-8H-imidazo[4′,5′:5,6]benz [1,2-d]thiazol-2-yl]imidazolidin-2-one] | * * | * * * |  | * * * |  | * * |
| CC#CC1CNC(=O)N1c1nc2c(ccc3ncn(CCOC)c32)s1 (racemic) [Example 33, (RS)-1-[8-(2-methoxyethyl)-8H-imidazo[4′,5′:5,6]benz[1,2-d]thiazol-2-yl]-5-(prop-1-yn-1-yl)imidazolidin-2-one] |  | * * | 6.00 to 7.00 | * * | 6.00 to 7.00 |  |
| CC#CC1CNC(=O)N1c1nc2c3c(ccc2s1)OCCN3 (racemic) [Example 38, (RS)-1-(8,9-dihydro-7H-thiazolo[4′,5′:3,4]benz[1,2-b][1,4]oxazin-2-yl)-5-(prop-1-yn-1-yl)imidazolidin-2-one] |  | * * * | 6.00 to 7.00 | * * * | 6.00 to 7.00 |  |
| CC#C[C@@H]1[C@H]([C@H](C)O)NC(=O)N1c1nc2c3c(ccc2s1)OCC3 [Example 84, (4R,5R)-1-(7,8-dihydrobenzofuro[4,5-d]thiazol-2-yl)-4-((S)-1-hydroxyethyl)-5-(prop-1-yn-1-yl)imidazolidin-2-one] |  |  | 6.00 to 7.00 | * * * | 6.00 to 7.00 |  |

Second part, the compound after the results:

| Inhibitory Activity 3 (IC50 against DYRK3) (DYRK3) | Inhibitory Activity 1b (IC50 against DYRK1B) (DYRK1B) | pIC50 (DYRK2) | Inhibitory Activity 1a (IC50 against DYRK1A) (DYRK1A) | pIC50 (DYRK3) | Inhibitory Activity 2 (IC50 against DYRK2) (DYRK2) | Compound |
| --- | --- | --- | --- | --- | --- | --- |
| * * | * * * | 6.00 to 7.00 | * * * |  |  | CC#CC1CNC(=O)N1c1nc2c3c(ccc2s1)OCO3 (racemic) [Example 1, (RS)-1-([1,3]dioxolo[4′,5′:5,6]benzo[1,2-d]thiazol-7-yl)-5-(prop-1-yn-1-yl)imidazolidin-2-one] |
| * * | * * * | 6.00 to 7.00 | * * * |  |  | CC#CC1CNC(=O)N1c1nc2c3c(ccc2s1)OCC3 (racemic) [Example 8, (RS)-1-(7,8-dihydrobenzofuro[4,5-d]thiazol-2-yl)-5-(prop-1-yn-1-yl)imidazolidin-2-one] |
|  | * * * | 6.00 to 7.00 | * * * | 6.00 to 7.00 |  | CC#CC1CNC(=O)N1c1nc2c(ccc3nccnc32)s1 (racemic) [Example 24, (RS)-5-(prop-1-yn-1-yl)-1-(thiazolo[4,5-f]quinoxalin-2-yl)imidazolidin-2-one] |
|  | * * * | 6.00 to 7.00 | * * * | 6.00 to 7.00 |  | CC#CC1CNC(=O)N1c1nc2c3c(ccc2s1)OCCN3C (racemic) [Example 25, (RS)-1-(9-methyl-8,9-dihydro-7H-thiazolo[4′,5′;3,4]benz[1,2-b][1,4]oxazin-2-yl)-5-(prop-1-yn-1-yl)imidazolidin-2-one] |
| * * | * * * | 6.00 to 7.00 | * * * |  |  | CC#CC1CNC(=O)N1c1nc2c(ccc3ncn(C)c32)s1 (racemic) [Example 26, (RS)-1-(8-methyl-8H-imidazo[4′,5′:5,6]benz[1,2-d]thiazol-2-yl)-5-(prop-1-yn-1-yl)imidazolidin-2-one] |
| * * | * * * | 6.00 to 7.00 | * ** |  |  | CC#CC1CNC(=O)N1c1nc2c(ccc3ncccc32)s1 (racemic) [Example 27, (RS)-5-(prop-1-yn-1-yl)-1-(thiazolo[4,5-f]quinolin-2-yl)imidazolidin-2-one] |
